In PMC7180456, “Multitarget Anticancer Agents Based on Histone Deacetylase and Protein Kinase CK2 Inhibitors” (Molecules, 2020):

Tested on: Jurkat T-leukemia cells
Test: Annexin V-PI double staining, FACS
Type: cell-based, human
Details: 10 µM and 30 µM, 24 h, comparison between compounds
Procedure: To confirm the pro-apoptotic activity of the studied inhibitors, Annexin V-PI double staining was addressed (Figure 7 down).
For cell death analyses, cells were stained with FITC-conjugated annexin V and propidium iodide (PI) using an apoptosis detection kit (BD Biosciences, San Jose, CA), according to the manufacturer’s instructions. In particular, 24 h after the addition of various concentration of CK2-HDAC inhibitors, Jurkat T-leukemia cells were centrifuged at 2,000 rpm, washed twice with 1x PBS, and incubated for 15 minutes in Annexin V binding buffer (BD Pharmingen, USA) containing 1/50 volume of FITC-conjugated Annexin V solution and PI (50 µg/mL). Then samples were diluted two times by appropriate volume of Annexin V binding buffer (BD Pharmingen, USA) and immediately measured on FL1/FL2 (FITC-PI) channels of FACScan flow cytometer (Becton Dickinson, USA). Analysis of the obtained results was carried out using the Cytomation Summit Software v3.1 (Cytomation Inc., USA).

## CN(C)c1nc2c(Br)c(Br)c(Br)c(Br)c2n1CCc1cn(CCC(=O)NO)nn1 [Compound 7c, N-Hydroxy-3-(4-(2-(4,5,6,7-tetrabromo-2-(dimethylamino)-1H-benzo[d]imidazol-1-yl)ethyl)-1H-1,2,3-triazol-1-yl)propanamide]
  number of annexin V-positive (apoptotic) cells: significant decrease
